According to patent US5130143A, “Use of a low affinity-heparin fraction in conjunction with t-PA for thrombolytic therapy” (The Research Foundation of State University of New York, priority 1988, dated 1992):

Target: T1, t-PA (Homo sapiens, UniProt P00750)
T1 construct: The t-PA purified from human melanoma (Bowes) cell culture; host or cells: Bowes human melanoma cell culture (purified t-PA)
Assay: Amidolytic plasmin assay: activation of plasminogen by t-PA (S-2251 substrate)
Format: biochemical
Settings: no fibrinogen fragments; 0.09 nM t-PA, 0.42 μM plasminogen, 25° C.
Protocol: The assay defects lysis of the amide bond of plasminogen in determining their "amidolytic plasmin activity."
The ability of unfractionated HMW-heparin to stimulate amidolytic plasmin activity of a mixture of Lys-plasminogen or Glu-plasminogen and t-PA was measured according to the protocol, previously published by the inventors herein in Biochemistry, 25, 4033 (1986) (hereinafter "the Biochemistry Paper").
To a buffered solution of 200 ul of 0.1M Tris-HCl, pH 8.1, 0.1% (V/V) Tween 80, 0.3 mM chromogenic plasmin substrate H-D-Val-Leu-Lys-pNA (S-2251, Kabi, Sweden) was added. To this mixture, HMW-heparin fractions (the Ca and Na salts, respectively) in concentrations ranging from 0 to 25 units/ml and 0.42 μM Glu- or Lys- plasminogen were added. […]
The solutions were incubated in microliter plates at 25° C. The change in absorbance (ΔA) at 405 nm was measured against blanks without t-PA in a Bio-Tek model EL-308 microplate reader.
It should be noted that plasmin activity was actually being measured in this assay and that the plasmin concentration was increasing as a function of time due to the action of the plasminogen activators on plasminogen. Thus, plots of absorbance vs. time are parabolic, whereas plots of absorbance vs. time squared are linear. Therefore, the slopes of plots of absorbance vs. time squared were used as a measure of the rate (VO) of plasmin generation. […]

T1 sequence (P00750 36-562): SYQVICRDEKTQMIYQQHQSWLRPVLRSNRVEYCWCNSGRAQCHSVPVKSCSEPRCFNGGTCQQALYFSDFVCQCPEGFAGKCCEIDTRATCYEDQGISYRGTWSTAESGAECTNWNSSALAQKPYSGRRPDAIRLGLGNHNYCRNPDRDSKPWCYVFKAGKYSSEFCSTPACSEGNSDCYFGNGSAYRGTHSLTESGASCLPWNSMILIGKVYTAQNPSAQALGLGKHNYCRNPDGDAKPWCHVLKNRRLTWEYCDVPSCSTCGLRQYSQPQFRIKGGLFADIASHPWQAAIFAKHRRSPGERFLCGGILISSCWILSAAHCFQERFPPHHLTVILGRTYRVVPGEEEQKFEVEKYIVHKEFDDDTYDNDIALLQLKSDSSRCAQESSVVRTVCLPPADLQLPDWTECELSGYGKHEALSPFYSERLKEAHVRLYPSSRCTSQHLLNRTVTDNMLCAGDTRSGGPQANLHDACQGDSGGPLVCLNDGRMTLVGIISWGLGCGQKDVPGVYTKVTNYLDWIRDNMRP

## [Cl-].[Na+] [NaCl]
  effect on amidolytic plasmin activity (plasmin generation) of t-PA-plasminogen mixture: did not cause a marked decrease
